From patent US20220249441A1, “Homodimeric Tobramycin Adjuvant Repurposes Novobiocin as an Effective Antibacterial Agent Against Gram-Negative Bacteria” (priority 2019, published 2022)
Converted amounts (≈) assume the structure as drawn.

Tests used:
[1] = test system: A. baumannii ATCC 17978 and resistant mutants; experiment: microbe, parasite or virus in culture; assay type: cell-based, Acinetobacter baumannii; conditions: Acinetobacter baumannii
Description: (§1) Antimicrobial Susceptibility Assay. The in vitro antimicrobial activity of all compounds/antibiotics against a panel of bacteria was evaluated by microbroth dilution method in accordance with the Clinical and Laboratory Standards Institute (CLSI) guidelines (using ATCC strains as quality control strains) (54). Overnight grown bacterial cultures were diluted in saline to achieve a 0.5 McFarland turbidity, followed by 1:50 dilution in Mueller-Hinton broth (MHB) for inoculation to a final concentration of approximately 5×10^5 CFU/mL. […] The lowest concentration that prevented the visible growth of bacteria was defined as the MIC for each antimicrobial agent. The broth with or without bacterial cells was used as positive or negative control, respectively.
Development of Resistance Study. […] Tobramycin and colistin were included as controls. At 24-hour intervals, the cultures were assessed for growth. […] This serial passaging was repeated for 8 days.

P. aeruginosa = experiment: Checkerboard assay (antibiotic + adjuvant combination MIC); assay type: cell-based, Pseudomonas aeruginosa; conditions: P. aeruginosa PAO1; β-lactam antibiotic alone
Description: as §1
Checkerboard Assay. Combination studies with different antibiotics were performed in 96-well plates as previously described (19). Briefly, the antibiotic of interest was serially diluted in MHB along the abscissa while the adjuvant (tobramycin homodimer) was serially diluted in MHB along the ordinate. This creates a 10×7 matrices wherein each well consists of a combination of different antibiotic and adjuvant concentrations. Overnight grown bacterial cultures were diluted in saline to achieve a 0.5 McFarland turbidity, followed by 1:50 dilution in Mueller-Hinton broth (MHB) for inoculation to a final concentration of approximately 5×10^5 CFU/mL. […] MIC was recorded as wells with the lowest concentration of drugs with no bacterial growth. The fractional inhibitory concentration (FIC) for each antibiotic was calculated by dividing the MIC of the antibiotic in the presence of adjuvant by the MIC of the antibiotic alone. Similarly, the FIC of adjuvant was calculated by dividing the MIC of the adjuvant in the presence of antibiotic by the MIC of the adjuvant alone. FIC index is the sum of both FICs. FIC indices of ≤0.5 were deemed synergistic; >0.5-4, no interaction; and >4, antagonistic.

[2] = ATCC17978, 18 h, Mutant C (seven serial passages, sub-MICs novobiocin + 7.1 μM compound 1)
[3] = ATCC17978, Mutant A (seven serial passages, sub-MICs novobiocin)
[4] = ATCC17978, Mutant B (seven serial passages, sub-MICs colistin)
[5] = ATCC17978, Wild-type A. baumannii ATCC 17978

Row | MIC Alone (P. aeruginosa) | Compound | MIC [1, 2] | MIC [1, 3] | MIC [1, 4] | MIC [1, 5]
1 |  | CN(C)c1ccc(O)c2c1C[C@H]1C[C@H]3[C@H](N(C)C)C(O)=C(C(N)=O)C(=O)[C@@]3(O)C(O)=C1C2=O [Minocycline] | 0.125 mg/L | 0.5 mg/L (≈ 1.09 µM) | < 0.031 mg/L | 0.125 mg/L (≈ 0.273 µM)
2 | 8 mg/L | CCN1CCN(C(=O)N[C@@H](C(=O)N[C@@H]2C(=O)N3[C@@H]2SC(C)(C)[C@@H]3C(=O)O)c2ccccc2)C(=O)C1=O [Piperacillin, reference compound] |  |  |  | 
3 |  | CO[C@H]1/C=C/O[C@@]2(C)Oc3c(C)c(O)c4c(O)c(c(/C=N/N5CCN(C)CC5)c(O)c4c3C2=O)NC(=O)/C(C)=C\C=C\[C@H](C)[C@H](O)[C@@H](C)[C@@H](O)[C@@H](C)[C@H](OC(C)=O)[C@@H]1C [Rifampicin] | 2 mg/L | 2 mg/L (≈ 2.43 µM) | < 0.031 mg/L | 2 mg/L (≈ 2.43 µM)
